The target of test [1] is GDP-bound HRAS wild-type protein (Homo sapiens, UniProt P01112). The experiment in a line: Binding to HRAS by surface plasmon resonance (SPR), Single Cycle Kinetics. The following applies: SPR; GDP-bound HRAS wild-type protein vs GDP-bound KRAS wild-type protein; KD ratio class. (SPR reads the build-up and loss of mass on a sensor chip optically.)
Test [2] has as its target GDP-bound NRAS wild-type protein (Homo sapiens, UniProt P01111). The experiment in a line: Binding to NRAS by surface plasmon resonance (SPR), Single Cycle Kinetics. Particulars: SPR; GDP-bound NRAS wild-type protein vs GDP-bound KRAS wild-type protein; KD ratio class.
For test [3], the system named is human lung cancer strain NCI-H441.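 Also: cell proliferation inhibition after four days measured by CellTiter-Glo.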
Test [4] addresses GDP-bound KRAS wild-type protein (Homo sapiens, UniProt P01116). The experiment in a line: Binding to KRAS by surface plasmon resonance (SPR), Single Cycle Kinetics. Particulars: SPR, Single Cycle Kinetics, 1:1 binding model; GDP-bound KRAS wild-type protein; read-out: KRAS KD.

The structures appear in SMILES notation.

Sequence of GDP-bound KRAS wild-type protein (P01116 whole entry): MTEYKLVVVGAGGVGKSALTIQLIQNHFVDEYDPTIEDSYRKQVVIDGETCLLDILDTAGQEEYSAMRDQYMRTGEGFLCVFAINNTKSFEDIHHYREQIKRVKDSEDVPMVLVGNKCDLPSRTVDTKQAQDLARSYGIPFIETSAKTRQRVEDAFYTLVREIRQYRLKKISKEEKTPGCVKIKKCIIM
Sequence of GDP-bound NRAS wild-type protein (P01111 whole entry): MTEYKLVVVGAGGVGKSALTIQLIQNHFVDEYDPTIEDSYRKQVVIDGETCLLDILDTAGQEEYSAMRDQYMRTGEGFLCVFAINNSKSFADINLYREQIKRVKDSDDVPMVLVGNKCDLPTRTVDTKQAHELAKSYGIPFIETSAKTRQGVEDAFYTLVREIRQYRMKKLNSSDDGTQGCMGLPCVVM
Sequence of GDP-bound HRAS wild-type protein (P01112 whole entry): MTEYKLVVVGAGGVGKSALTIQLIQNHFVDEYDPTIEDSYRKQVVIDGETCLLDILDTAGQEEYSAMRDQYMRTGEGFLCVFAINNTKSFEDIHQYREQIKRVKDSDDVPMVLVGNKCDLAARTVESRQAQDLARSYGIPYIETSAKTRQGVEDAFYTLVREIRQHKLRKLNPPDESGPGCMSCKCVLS

One may read the IC50 as the point on the concentration scale where inhibition reaches its midpoint. A low value points to inhibition by little substance. The term Kd denotes the equilibrium constant for the complex coming apart. As to `CCC[C@H]1C(=O)N[C@@H]([C@@H](C)CC)C(=O)N(C)CC(=O)N(C)[C@H]2C/C=C\CCN(C2=O)[C@@H](CC2CCC(F)(F)CC2)C(=O)N(C)CC(=O)N[C@@H](CCc2cc(F)c(C(F)(F)F)c(F)c2)C(=O)N2C[C@H](OCC)C[C@H]2C(=O)NC2(CCC2)C(=O)N(C)[C@@H](C2CCCC2)C(=O)N(C)[C@H](C(=O)N(C)C)CC(=O)N1C` [PP1450, (2S,8S,12R,14S,20S,23S,27S,30S,36S,38Z)-20-cyclopentyl-2-[(4,4-difluorocyclohexyl)methyl]-8-[2-[3,5-difluoro-4-(trifluoromethyl)phenyl]ethyl]-12-ethoxy-N,N,4,19,22,26,32,35-octamethyl-30-[(1S)-1-methylpropyl]-3,6,9,15,18,21,25,28,31,34,42-undecaoxo-27-propyl-spiro[1,4,7,10,16,19,22,26,29,32,35-undecazatricyclo[34.5.1.0^10,14]dotetracont-38-ene-17,1′-cyclobutane]-23-carboxamide], the “HRAS/KRAS (ratio of KD value for HRAS to KD value for KRAS)” value in test [1] is “A (a compound having 10 or more and less than 20 is denoted as A)”. The “NRAS/KRAS (ratio of KD value for NRAS to KD value for KRAS)” value in test [2] is “A (a compound having 10 or more and less than 20 is denoted as A)”. In addition, in test [3], it took 50.1 nM to reach half-maximal inhibition (IC50). The Kd in test [4] came out at 0.14 nM.
On to `CC[C@H](C)[C@@H]1NC(=O)[C@H](CC)N(C)C(=O)C[C@@H](C(=O)N(C)C)N(C)C(=O)[C@H](C2CCCC2)N(C)C(=O)C2(CCC2)NC(=O)[C@@H]2C[C@@H](C(F)(F)F)CN2C(=O)[C@H](CCc2cc(F)c(C(F)(F)F)c(F)c2)NC(=O)CN(C)C(=O)[C@H](CC2CCC(F)(F)CC2)N2CC/C=C\C[C@@H](C2=O)N(C)C(=O)CN(C)C1=O` [PP1451, (2S,8S,12R,14S,20S,23S,27S,30S,36S,38Z)-20-cyclopentyl-2-[(4,4-difluorocyclohexyl)methyl]-8-[2-[3,5-difluoro-4-(trifluoromethyl)phenyl]ethyl]-27-ethyl-N,N,4,19,22,26,32,35-octamethyl-30-[(1S)-1-methylpropyl]-3,6,9,15,18,21,25,28,31,34,42-undecaoxo-12-(trifluoromethyl)spiro[1,4,7,10,16,19,22,26,29,32,35-undecazatricyclo[34.5.1.0^10,14]dotetracont-38-ene-17,1′-cyclobutane]-23-carboxamide], for which the “HRAS/KRAS (ratio of KD value for HRAS to KD value for KRAS)” value in test [1] is “A (a compound having 10 or more and less than 20 is denoted as A)”. Also, in test [2], the “NRAS/KRAS (ratio of KD value for NRAS to KD value for KRAS)” value was “A (a compound having 10 or more and less than 20 is denoted as A)”. Besides, the IC50 in test [3] was 61.1 nM. Also, the Kd in test [4] amounted to 0.14 nM.
Consider `CCO[C@@H]1C[C@H]2C(=O)NC3(CCC3)C(=O)N(C)[C@@H](C3CCCC3)C(=O)N(C)[C@H](C(=O)N(C)C)CC(=O)N(C)[C@@H](CC)C(=O)N[C@@H]([C@@H](C)CC)C(=O)N(C)CC(=O)N(C)[C@H]3C/C=C\CCN(C3=O)[C@@H](CC3CCC(F)(F)CC3)C(=O)N(C)CC(=O)N[C@@H](CCc3cc(F)c(C(F)(F)F)c(F)c3)C(=O)N2C1` [PP1452, (2S,8S,12R,14S,20S,23S,27S,30S,36S,38Z)-20-cyclopentyl-2-[(4,4-difluorocyclohexyl)methyl]-8-[2-[3,5-difluoro-4-(trifluoromethyl)phenyl]ethyl]-12-ethoxy-27-ethyl-N,N,4,19,22,26,32,35-octamethyl-30-[(1S)-1-methylpropyl]-3,6,9,15,18,21,25,28,31,34,42-undecaoxo-spiro[1,4,7,10,16,19,22,26,29,32,35-undecazatricyclo[34.5.1.0^10,14]dotetracont-38-ene-17,1′-cyclobutane]-23-carboxamide], for which the “HRAS/KRAS (ratio of KD value for HRAS to KD value for KRAS)” value in test [1] was “A (a compound having 10 or more and less than 20 is denoted as A)”. In addition, the “NRAS/KRAS (ratio of KD value for NRAS to KD value for KRAS)” value in test [2] is “A (a compound having 10 or more and less than 20 is denoted as A)”. In test [3], this compound had an IC50 of 30.5 nM. Also, the Kd in test [4] was determined as 0.13 nM.
As to `CCO[C@@H]1C[C@H]2C(=O)NC3(CCC3)C(=O)N(C)[C@@H](C3CCCC3)C(=O)N(C)[C@H](C(=O)N(C)C)CC(=O)N(C)[C@@H](CC(C)C)C(=O)N[C@@H]([C@@H](C)CC)C(=O)N(C)CC(=O)N(C)[C@H]3C/C=C\CCN(C3=O)[C@@H](CC3CCC(F)(F)CC3)C(=O)N(C)CC(=O)N[C@@H](CCc3cc(F)c(C(F)(F)F)c(F)c3)C(=O)N2C1` [PP1453, (2S,8S,12R,14S,20S,23S,27S,30S,36S,38Z)-20-cyclopentyl-2-[(4,4-difluorocyclohexyl)methyl]-8-[2-[3,5-difluoro-4-(trifluoromethyl)phenyl]ethyl]-12-ethoxy-27-isobutyl-N,N,4,19,22,26,32,35-octamethyl-30-[(1S)-1-methylpropyl]-3,6,9,15,18,21,25,28,31,34,42-undecaoxo-spiro[1,4,7,10,16,19,22,26,29,32,35-undecazatricyclo[34.5.1.0^10,14]dotetracont-38-ene-17,1′-cyclobutane]-23-carboxamide], the “HRAS/KRAS (ratio of KD value for HRAS to KD value for KRAS)” value in test [1] was “A (a compound having 10 or more and less than 20 is denoted as A)”. Also, the “NRAS/KRAS (ratio of KD value for NRAS to KD value for KRAS)” value in test [2] is “A (a compound having 10 or more and less than 20 is denoted as A)”. In addition, the IC50 in test [3] came to 13.6 nM. The Kd in test [4] is 0.12 nM.
For the compound `C=CC[C@H]1C(=O)N[C@@H]([C@@H](C)CC)C(=O)N(C)CC(=O)N(C)[C@H]2C/C=C\CCN(C2=O)[C@@H](CC2CCC(F)(F)CC2)C(=O)N(C)CC(=O)N[C@@H](CCc2cc(F)c(C(F)(F)F)c(F)c2)C(=O)N2C[C@H](OCC)C[C@H]2C(=O)NC2(CCC2)C(=O)N(C)[C@@H](C2CCCC2)C(=O)N(C)[C@H](C(=O)N(C)C)CC(=O)N1C` [PP1454, (2S,8S,12R,14S,20S,23S,27S,30S,36S,38Z)-27-allyl-20-cyclopentyl-2-[(4,4-difluorocyclohexyl)methyl]-8-[2-[3,5-difluoro-4-(trifluoromethyl)phenyl]ethyl]-12-ethoxy-N,N,4,19,22,26,32,35-octamethyl-30-[(1S)-1-methylpropyl]-3,6,9,15,18,21,25,28,31,34,42-undecaoxo-spiro[1,4,7,10,16,19,22,26,29,32,35-undecazatricyclo[34.5.1.0^10,14]dotetracont-38-ene-17,1′-cyclobutane]-23-carboxamide], in test [1], the “HRAS/KRAS (ratio of KD value for HRAS to KD value for KRAS)” value was “A (a compound having 10 or more and less than 20 is denoted as A)”. Moreover, the “NRAS/KRAS (ratio of KD value for NRAS to KD value for KRAS)” value in test [2] was “A (a compound having 10 or more and less than 20 is denoted as A)”. Further, half-maximal inhibition in test [3] (IC50) was put at 15.2 nM. The Kd in test [4] was 0.096 nM.
For `CCO[C@@H]1C[C@H]2C(=O)NC3(CCC3)C(=O)N(C)[C@@H](C3CCCC3)C(=O)N(C)[C@H](C(=O)N(C)C)CC(=O)N(C)[C@@H](CC3CCC3)C(=O)N[C@@H]([C@@H](C)CC)C(=O)N(C)CC(=O)N(C)[C@H]3C/C=C\CCN(C3=O)[C@@H](CC3CCC(F)(F)CC3)C(=O)N(C)CC(=O)N[C@@H](CCc3cc(F)c(C(F)(F)F)c(F)c3)C(=O)N2C1` [PP1455, (2S,8S,12R,14S,20S,23S,27S,30S,36S,38Z)-27-(cyclobutylmethyl)-20-cyclopentyl-2-[(4,4-difluorocyclohexyl)methyl]-8-[2-[3,5-difluoro-4-(trifluoromethyl)phenyl]ethyl]-12-ethoxy-N,N,4,19,22,26,32,35-octamethyl-30-[(1S)-1-methylpropyl]-3,6,9,15,18,21,25,28,31,34,42-undecaoxo-spiro[1,4,7,10,16,19,22,26,29,32,35-undecazatricyclo[34.5.1.0^10,14]dotetracont-38-ene-17,1′-cyclobutane]-23-carboxamide], in test [1], the “HRAS/KRAS (ratio of KD value for HRAS to KD value for KRAS)” value was “A (a compound having 10 or more and less than 20 is denoted as A)”. The “NRAS/KRAS (ratio of KD value for NRAS to KD value for KRAS)” value in test [2] is “A (a compound having 10 or more and less than 20 is denoted as A)”. The same compound yielded an IC50 in test [3] of 13.4 nM. Moreover, the Kd in test [4] is 0.11 nM.
As to `CCO[C@@H]1C[C@H]2C(=O)NC3(CCCC3)C(=O)N(C)[C@@H](C3CCCC3)C(=O)N(C)[C@H](C(=O)N(C)C)CC(=O)N(C)[C@@H](C)C(=O)N[C@@H]([C@@H](C)CC)C(=O)N(C)CC(=O)N(C)[C@H]3C/C=C\CCN(C3=O)[C@@H](CC3CCC(F)(F)CC3)C(=O)N(C)CC(=O)N[C@@H](CCc3cc(F)c(C(F)(F)F)c(F)c3)C(=O)N2C1` [PP1456, (2S,8S,12R,14S,20S,23S,27S,30S,36S,38Z)-20-cyclopentyl-2-[(4,4-difluorocyclohexyl)methyl]-8-[2-[3,5-difluoro-4-(trifluoromethyl)phenyl]ethyl]-12-ethoxy-N,N,4,19,22,26,27,32,35-nonamethyl-30-[(1S)-1-methylpropyl]-3,6,9,15,18,21,25,28,31,34,42-undecaoxo-spiro[1,4,7,10,16,19,22,26,29,32,35-undecazatricyclo[34.5.1.0^10,14]dotetracont-38-ene-17,1′-cyclopentane]-23-carboxamide], the “HRAS/KRAS (ratio of KD value for HRAS to KD value for KRAS)” value in test [1] is “A (a compound having 10 or more and less than 20 is denoted as A)”. Moreover, in test [2], the “NRAS/KRAS (ratio of KD value for NRAS to KD value for KRAS)” value is “A (a compound having 10 or more and less than 20 is denoted as A)”. The same compound showed an IC50 in test [3] of 90 nM. In addition, in test [4], the Kd came to 0.12 nM.
